The source of these data is ChEMBL document CHEMBL4118109, “A combination of 19F NMR and surface plasmon resonance for site-specific hit selection and validation of fragment molecules that bind to the ATP-binding site of a kinase” (Bioorg Med Chem, 2018).

The source made the active and inactive calls. The rule behind the calls is not given here. A value given as a limit tells only on which side of the number the result lay.

Assay [1] deals with T1, Mitogen-activated protein kinase 1 (Homo sapiens, UniProt P28482). In words: Binding affinity to ATP-binding site of ERK2 (unknown origin) assessed as reduction in signal intensity in absence of competitor by 19F NMR spectroscopy. More on the design: concentration or dose not given beside the values.
T1 sequence (P28482 whole entry): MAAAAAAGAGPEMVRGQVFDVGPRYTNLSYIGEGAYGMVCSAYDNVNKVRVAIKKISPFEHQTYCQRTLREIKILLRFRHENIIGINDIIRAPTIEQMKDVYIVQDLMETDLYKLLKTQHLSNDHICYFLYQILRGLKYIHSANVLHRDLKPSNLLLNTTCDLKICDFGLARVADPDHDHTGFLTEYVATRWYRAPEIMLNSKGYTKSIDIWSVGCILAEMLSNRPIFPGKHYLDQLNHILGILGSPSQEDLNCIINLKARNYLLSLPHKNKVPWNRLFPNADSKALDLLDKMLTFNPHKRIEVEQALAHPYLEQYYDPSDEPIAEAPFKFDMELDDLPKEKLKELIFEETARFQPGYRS
The target of assay [2] is T1, Mitogen-activated protein kinase 1. The assay is described as follows: Binding affinity to ATP-binding site of ERK2 (unknown origin) assessed as reduction in signal intensity by 19F NMR spectroscopy. The arrangement: concentration or dose not given beside the values.
The target is the same in assay [3]. In words: Binding affinity to ATP-binding site of ERK2 (unknown origin) by surface plasmon resonance method. Background: In SPR one partner is held on a chip, and binding of the other changes the refractive index at the surface.
Assay [4] shares this target. The assay is described as follows: Binding affinity to ATP-binding site of ERK2 (unknown origin) assessed as reduction in signal intensity in presence of L100919 by competitive 19F NMR spectroscopy. More on the design: concentration or dose not given beside the values.
For assay [5] the target is unchanged. In words: Binding affinity to ATP-binding site of ERK2 (unknown origin) assessed as reduction in signal intensity in presence of […] by competitive 19F NMR spectroscopy. The arrangement: concentration or dose not given beside the values.
The target is the same in assay [6]. In words: Binding affinity to ATP-binding site of ERK2 (unknown origin) assessed as reduction in signal intensity in presence of FR180204 at 1 mM by competitive surface plasmon resonance method. The arrangement: scale not given: the % may be the effect or the level left.
Assay [7] shares this target. The assay is described as follows: Binding affinity to ATP-binding site of ERK2 (unknown origin) assessed as reduction in signal intensity in presence of L100919 at 1 mM by competitive surface plasmon resonance method. More on the design: scale not given: the % may be the effect or the level left.
Assay [8] shares this target. The assay is described as follows: Binding affinity to ATP-binding site of ERK2 (unknown origin) by isothermal titration calorimetry. In general terms: In ITC the heat of successive injections is recorded.

The term Kd denotes a measure of binding affinity in units of concentration.

For the molecule `CC(C)(C)OC(=O)N1CCC(CN)(Cc2ccc(C(F)(F)F)cc2)CC1`, the Activity worked out at 0% in assay [1] and 32% in assay [2].

Turning to `NC1CCN(c2cccc(F)c2[N+](=O)[O-])CC1`, in assay [3], the Kd is > 1000 µM. For the same molecule, the Activity in assay [1] is 10%; in assay [2], 39%.

In the case of `Fc1cccc2c1CC1(CCOCC1)CN2`, the Activity in assay [4] was 16%; in assay [1] it was 20%; in assay [2] it was 29%; in assay [5], 14%.

With `Nc1ccc2nc(-c3ccc(F)cc3)nn2c1`, the equilibrium dissociation constant (Kd) in assay [3] is > 1000 µM. The Activity in assay [4] is 24%; in assay [1], 26%; in assay [2], 43%; in assay [5] it was 15%.

`Nc1cnc(Nc2ccc(C(F)(F)F)cc2)nc1`: the Kd in assay [3] is > 1000 µM. Also, the Activity in assay [4] is 5%; in assay [1], 26%; in assay [2], 40%; in assay [5] it was 7%; in assay [6], 14%.

With `CC(C)(C)OC(=O)N1CCC2(CC1)C(=O)Nc1ccc(F)cc12`, the Activity in assay [4] was found to be 15%; in assay [1] it was 45%; in assay [2] it was 39%; in assay [5], 13%.

For the molecule `COCCCNc1ccc(F)cc1[N+](=O)[O-]`, the Activity in assay [4] was 14%; in assay [1] it was 15%; in assay [2], 29%; in assay [5], 10%.

For the molecule `FC(F)(F)c1ccnc(NC2CCNCC2)c1`, the dissociation constant Kd in assay [3] is 989 µM. In addition, the Activity in assay [1] came to 9%; in assay [2] it was 11%; in assay [6], 20%.

`FC(F)(F)c1cnn2cc(Br)cnc12`: the Activity in assay [4] is 5%; in assay [1], 22%; in assay [2] it was 33%; in assay [5], -4%.

As for `Fc1ccc2[nH]cc(C3CCCNC3)c2c1` (centres undefined), the Kd in assay [3] was > 1000 µM. Moreover, the Activity in assay [4] turned out to be 9%; in assay [1], 20%; in assay [2], 10%; in assay [5] it was 9%.

For the molecule `O=C1c2cccc(F)c2CN1[C@H]1CCCNC1`, in assay [3], the dissociation constant (Kd) is > 1000 µM. Also, the Activity in assay [4] was 8%; in assay [1] it was 22%; in assay [7] it was 26%; in assay [2] it was 32%; in assay [5], -1%; in assay [6], 31%.

As for `O=C1c2ccc(F)cc2CN1[C@H]1CCCNC1`, the Kd in assay [3] was > 1000 µM. Moreover, the Activity came to 8% in assay [4], 67% in assay [1], 66% in assay [2] and 2% in assay [5].

Take `Nc1c(F)cccc1N1CCCCC1`: the Activity in assay [4] was found to be 12%; in assay [1], 17%; in assay [7], 17%; in assay [2], 31%; in assay [5] it was 7%; in assay [6], 10%.

As for `Fc1cccc(-c2nnc3ccc(Br)cn23)c1`, in assay [3], the Kd is > 1000 µM. Further, the Activity came to 20% in assay [4]; 49% in assay [1]; 54% in assay [2]; 16% in assay [5]; 12% in assay [6].

As for `NCc1cn(Cc2ccccc2C(F)(F)F)cn1`, the Kd in assay [3] is > 1000 µM. Moreover, the outcome in assay [2] was inactive.

On to `Fc1ccc2[nH]cc(C3CCOCC3)c2c1`, for which the Kd in assay [3] was > 1000 µM. The Activity in assay [4] came to 14%; in assay [1], 16%; in assay [7], 10%; in assay [2], 14%; in assay [5], 10%.

Consider `O=C(O)c1ccc2nc(-c3ccccc3F)nn2c1`, for which the equilibrium dissociation constant (Kd) in assay [3] was > 1000 µM. The Activity in assay [4] was 24%; in assay [1], 35%; in assay [7], 12%; in assay [2] it was 47%; in assay [5], 17%; in assay [6], 14%.

As for `CC(C)(C)OC(=O)N[C@H]1CCN(c2ncccc2[N+](=O)[O-])C1`, the dissociation constant (Kd) in assay [3] was > 1000 µM. The Activity came out at 2% in assay [1] and 20% in assay [2].

In the case of `Fc1ccc2[nH]cc(CC3CCOCC3)c2c1`, the Kd was 929 µM in assay [3] and 410 µM in assay [8]. The Activity is 20% in assay [4], 30% in assay [1], 28% in assay [2] and 19% in assay [5].

As to `CCOc1cc(N)cc(C(F)(F)F)c1`, the Kd in assay [3] is > 1000 µM. For the same molecule, the Activity in assay [7] worked out at 17%.

Consider `O=C1c2ccc(F)cc2CN1C1CCNCC1`, for which the Kd in assay [3] is > 1000 µM. Moreover, the values for the Activity in assay [1] and in assay [2] were 7% and 13%, respectively.

With `Fc1ccc2c(CC3CCOCC3)c[nH]c2c1`, in assay [3], the dissociation constant Kd is > 1000 µM. In addition, the Activity in assay [4] is 23%; in assay [1] it was 24%; in assay [2], 36%; in assay [5], 22%; in assay [6] it was 25%.

`CC(C)(C)OC(=O)N1CCC(CN)(Cc2cccc(C(F)(F)F)c2)CC1`: the dissociation constant (Kd) in assay [3] was > 1000 µM. The Activity in assay [1] amounted to 9%; in assay [2], 26%.

`N[C@H]1CC[C@H](N2Cc3c(F)cccc3C2=O)CC1`: binding in assay [3] was characterised by a dissociation constant (Kd) of 495 µM. For the same molecule, the Activity in assay [1] turned out to be 9%; in assay [7], 12%; in assay [2] it was 41%; in assay [6] it was 15%.

Consider `N[C@H]1CC[C@H](N2Cc3cc(F)ccc3C2=O)CC1`, for which the outcome in assay [2] was inactive.

With `Nc1cnc2c(C(F)(F)F)cnn2c1`, the Activity in assay [1] was -12%; in assay [7], 19%; in assay [2], 33%; in assay [6] it was 23%.

Take `NCc1cn(Cc2ccccc2F)cn1`: the outcome in assay [2] was inactive.

As to `CC(C)(C)OC(=O)N1CCC(Cc2cccc(C(F)(F)F)c2)(C(=O)O)CC1`, the Kd in assay [3] was > 1000 µM. The Activity in assay [4] turned out to be 25%; in assay [1], 30%; in assay [2], 26%; in assay [5], 23%.
